Biological target: tyrosinase (Sigma Co.)
Assay: Measurement of tyrosinase activity inhibition (L-DOPA substrate, absorbance at 417 nm)
Assay type: biochemical
Settings: substrate 2 mM L-DOPA, phosphate-potassium buffer pH 6.8, tyrosinase 0.5 mg/ml, absorbance 417 nm; read-out: IC50, concentration of tyrosinase activity inhibitor when the tyrosinase activity inhibition (%) is 50%
Method: The measurement was conducted by the following method.
The reaction reagent used are as follows:
Substrate: 2 mM L-DOPA (Wako Junyaku Co.)
Buffer: 0.1 mM phosphate-potassium solution (pH 6.8)
Inhibitor: 1% solution of the compound of the formula (I), 4-ethylresorcinol, compound of the formula (II), 5-methylresorcinol and compound of the formula (III), 6,6'-di-n-propyl-2,2',4,4'-tetrahydroxydiphenylmethane
Enzyme: tyrosinase (Sigma Co.), 0.5 mg/ml
(2) Measurement of tyrosinase activity inhibition %
In the case of measuring tyrosinase activity inhibition %, a sample solution (No.1 to No.3) was prepared in a spectrophotometric cell (1 ml), by mixing each ingredient in the following formulation shown in Table 1. […]
Formulation of sample solution (ml)
An enzyme solution (0.20 ml) was added to the cell. Three minutes later, the measurement of temporal changes of an absorbance (417 nm) by means of a spectrophotometer had started. The inhibition % was calculated based on the following equation:
Inhibition %=[1-(Ab.3-Ab.1/Ab.2-Ab.1)]×100

| IC50 [µM] | SMILES |
| --- | --- |
| 25 | CCCc1cc(O)cc(O)c1Cc1c(O)cc(O)cc1CCC [Example 3, 6,6'-di-n-propyl-2,2',4,4'-tetrahydroxydiphenylmethane] |
| 2 | CCc1ccc(O)cc1O [drawing 4 Ethyl, 4-ethylresorcinol] |
| 8 | Cc1ccc(O)cc1O [drawing 4 Methyl] |
| 0.7 | CCCCCCCc1ccc(O)cc1O [drawing 4 n-Heptyl] |
| 0.9 | CCCCCCCCCc1ccc(O)cc1O [drawing 4 n-Nonyl] |
| 0.8 | CCCCCc1ccc(O)cc1O [drawing 4 n-Pentyl] |
| 0.9 | CCCc1ccc(O)cc1O [drawing 4 n-Propyl] |
| 700 | CCc1cc(O)cc(O)c1 [drawing 5 Ethyl] |
| 5000 | Cc1cc(O)cc(O)c1 [drawing 5 Methyl, 5-methylresorcinol] |
| 200 | CCCCCCCc1cc(O)cc(O)c1 [drawing 5 n-Heptyl] |
| 200 | CCCCCCCCCc1cc(O)cc(O)c1 [drawing 5 n-Nonyl] |

| SMILES | IC50 [µM] |
| --- | --- |
| CCCCCc1cc(O)cc(O)c1 [drawing 5 n-Pentyl] | 200 |
| CCCc1cc(O)cc(O)c1 [drawing 5 n-Propyl] | 500 |

Test system: tyrosinase
Assay: not given
Settings: as described in Japanese Patent Kokai No. 4-169515; cited from earlier work

| SMILES | tyrosinase activity inhibition effect |
| --- | --- |
| NC[C@H]1CC[C@H](C(=O)O)CC1 [tranexamic acid] | low tyrosinase activity inhibition effect |

Test system: not given
Assay: not given
Settings: prior-art statement, no test described; cited from earlier work

| SMILES | toxicity |
| --- | --- |
| OC[C@H]1O[C@@H](Oc2ccc(O)cc2)[C@H](O)[C@@H](O)[C@@H]1O [arbutin] | has toxicity |
